Assays:
[1] = Thermogravimetric analysis (TGA); format: physicochemical; conditions: for degradation of the sample (temperature): 25 to 320° C., 10° C./minute
Description: Analyses were performed on a Mettler Toledo TGA/DSC1 instrument, coupled with a Thermo Nicolet iS10 spectrometer. The sample was flushed with dry nitrogen gas during the analysis. The sample was scanned from 25 to 320° C. with a scan rate of 10° C./minute.
Degradation of the sample occurred at approximately 248° C.
Melting of the sample occurred at approximately 211° C., and degradation of the sample occurred at approximately 251° C.

[2] = test system: intragastric acidity; format: in vivo, human
Description: (§1) X842 is a prodrug of Linaprazan, which was disclosed in WO 99/55706 and previously studied in Phase I and II studies. […] A clinical Phase I study has shown that administration of a single dose of X842 can maintain the intragastric acidity above pH 4 for 24 hours. X842 is therefore tailored for patients with severe erosive gastroesophageal reflux disease (eGERD).
Following absorption into the blood stream, X842 is quickly metabolized into Linaprazan, which is the active metabolite of X842. Whereas the plasma concentration of X842 is only very low and difficult to determine, the plasma concentration of Linaprazan may be determined instead. […] It is estimated that this requires a minimal plasma concentration (Cmin) of Linaprazan of at least about 240 nmol/L after 22 hours. At such doses, a once daily oral administration of the formulation would be sufficient. Therefore, in another aspect, the invention relates to the pharmaceutical composition as disclosed herein, wherein a unit dose of the composition provides a Cmin of Linaprazan in a human of at least about 240 nmol/L after 22 hours following oral administration of the pharmaceutical composition to said human.

[3] = Half-life in the body, X842 compared to Linaprazan; format: in vivo; conditions: in comparison with Linaprazan
Description: as §1

[4] = Phase I and II studies; cited from earlier work
[5] = Dynamic vapour sorption (DVS) analysis, hygroscopicity; format: physicochemical
Description: Analyses were performed on a Surface Measurement Systems DVS Intrinsic instrument. The relative humidity at 25° C. was calibrated against the deliquescense point of LiCL, Mg(NO3)2 and KCl. The sample (about 10-20 mg) was dried with nitrogen gas until a dm/dt below 0.002% per minute was reached. The instrument was running in dm/dt mode using a minimum dm/dt stability duration of 10 minutes and a maximum equilibrium time of 180 minutes. The sample was subjected to a sorption-desorption cycle running from 0 to 95 to 0% RH. One cycle consisted of 20 steps, those between 0 and 90% RH were taken in 10% RH each.
The hygroscopicity of Form A was investigated using DVS at 25° C. The water uptake at 25° C./80% RH was about 0.08%, which means that Form A is non-hygroscopic.

## Cc1cccc(C)c1CNc1cc(C(=O)NCCOC(=O)CCCC(=O)O)cn2c(C)c(C)nc12 [Form B, 5-{2-[({8-[(2,6-dimethylbenzyl)amino]-2,3-dimethylimidazo[1,2-a]pyridine-6-yl}carbonyl)-amino]ethoxy}-5-oxopentanoic acid]
[1]
  degradation of the sample (temperature): approximately 251 °C
[1]; in the range of 128-220° C., attributed to loss of isopropyl alcohol
  weight loss: approximately 1%

## Cc1cccc(C)c1CNc1cc(C(=O)NCCOC(=O)CCCC(=O)O)cn2c(C)c(C)nc12 [Form X842, 5-{2-[({8-[(2,6-dimethylbenzyl)amino]-2,3-dimethylimidazo[1,2-a]pyridine-6-yl}carbonyl)-amino]ethoxy}-5-oxopentanoic acid]
[2]; after administration of X842, Phase I
  time intragastric pH is maintained above 4: 24 hours
[3]
  half-life in the body: longer

## Cc1cccc(C)c1CNc1cc(C(=O)NCCO)cn2c(C)c(C)nc12 [Linaprazan]
[2]; human, in vivo, po, 22 h
  minimal plasma concentration (Cmin) of Linaprazan required to maintain intra-gastric pH above 4 for 24 hours: at least 240 nmol/L
[4]
  elimination from the body: quickly eliminated
  tolerability: well tolerated

## Cc1cccc(C)c1CNc1cc(C(=O)NCCOC(=O)CCCC(=O)O)cn2c(C)c(C)nc12 [Form A, 5-{2-[({8-[(2,6-dimethylbenzyl)amino]-2,3-dimethylimidazo[1,2-a]pyridine-6-yl}carbonyl)-amino]ethoxy}-5-oxopentanoic acid]
[5]; DVS at 25° C.
  hygroscopicity: non-hygroscopic
[5]; DVS, 25° C./80% RH
  water uptake: about 0.08%
[5]; sorption-desorption cycle 0 to 95 to 0% RH, 25° C.
  change of form after DVS (X-ray powder diffractograms before and after): no change of form occurred
[1]
  degradation of the sample (temperature): approximately 248 °C
[1]; before melting at approximately 217° C.
  weight loss before melting: did not show any weight loss
